Measurements published in US20240287089A1, “Preparation and Uses of 7-Azaindenoisoquinolines” (Purdue Research Foundation, priority 0001, published 2024).

Columns and labels:
HCT-116 (Colon) = assay: NCI-60 cytotoxicity assay; type: cell-based, human; conditions: Homo sapiens; HCT-116 colon; 48 h, sulforhodamine B; read-out: Comparative Cytotoxicity GI50, Colon HCT-116
Protocol: (§1) The antiproliferative activities of the indenoisquinoline compounds are determined in the NCI-60 cancer cell lines of the National Cancer Institute Developmental Therapeutics Program (NCI-DTP). […] Cancer cells are incubated with the test compounds at five concentrations ranging from 100 μM to 10 nM for 48 h. After the treated cancer cells are stained with sulforhodamine B dye, the percentage growth is plotted as a function of the common logarithm of the tested compound concentration. […] The approximate average of GI50 values across the entire panel of NCI-60 cancer cell lines for each compound is recorded as the MGM value.
(§2) NCI-60 Cytotoxicity Assay. Compounds were submitted to the National Cancer Institute Developmental Therapeutic Program to determine their growth-inhibitory potentials in NCI-60 cell lines. All compounds satisfied the pre-screening proceeded into the 5-dose cell viability assay, in which cells were treated for 48 h at 5 dosages ranging from 100 μM to 10 nM.

HOP-62 (Lung) = assay: NCI-60 cytotoxicity assay; type: cell-based, human; conditions: Homo sapiens; HOP-62 lung; 48 h, sulforhodamine B; read-out: Comparative Cytotoxicity GI50, Lung HOP-62
Protocol: as §1, §2

UACC-62 (Melanoma) = assay: NCI-60 cytotoxicity assay; type: cell-based, human; conditions: Homo sapiens; UACC-62 melanoma; 48 h, sulforhodamine B; read-out: Comparative Cytotoxicity GI50, Melanoma UACC-62
Protocol: as §1, §2

SN12C (Renal) = assay: NCI-60 cytotoxicity assay; type: cell-based, human; conditions: Homo sapiens; SN12C renal; 48 h, sulforhodamine B; read-out: Comparative Cytotoxicity GI50, Renal SN12C
Protocol: as §1, §2

OVCAR-3 (Ovarian) = assay: NCI-60 cytotoxicity assay; type: cell-based, human; conditions: Homo sapiens; OVCAR-3 ovarian; 48 h, sulforhodamine B; read-out: Comparative Cytotoxicity GI50, Ovarian OVCAR-3
Protocol: as §1, §2

DU-145 (Prostate) = assay: NCI-60 cytotoxicity assay; type: cell-based, human; conditions: Homo sapiens; DU-145 prostate; 48 h, sulforhodamine B; read-out: Comparative Cytotoxicity GI50, Prostate DU-145
Protocol: as §1, §2

MCF7 (Breast) = assay: NCI-60 cytotoxicity assay; type: cell-based, human; conditions: Homo sapiens; MCF7 breast; 48 h, sulforhodamine B; read-out: Comparative Cytotoxicity GI50, Breast MCE7
Protocol: as §1, §2

NCI-60 cancer cell lines = assay: NCI-60 cytotoxicity assay, MGM; type: cell-based; conditions: Homo sapiens; entire panel of NCI-60 cancer cell lines; read-out: MGM (approximate average of GI50 values across the NCI-60 panel)
Protocol: as §1, §2

SF-539 (CNS) = assay: NCI-60 cytotoxicity assay; type: cell-based; conditions: Homo sapiens; SF-539 CNS; 48 h, sulforhodamine B; read-out: Comparative Cytotoxicity GI50, CNS SF-539
Protocol: as §1, §2

Compound | GI50 (HCT-116 (Colon)) | GI50 (HOP-62 (Lung)) | GI50 (UACC-62 (Melanoma)) | GI50 (SN12C (Renal)) | GI50 (OVCAR-3 (Ovarian)) | GI50 (DU-145 (Prostate)) | GI50 (MCF7 (Breast)) | GI50 (NCI-60 cancer cell lines) | GI50 (SF-539 (CNS))
COc1cc2c3c(n(CCCNC4CCCCC4)c(=O)c2cc1OC)-c1cc2c(cc1C3=O)OCO2 [A7] | 1320 nM | 15900 nM | 28400 nM | 18600 nM | 11000 nM | 1840 nM | 1060 nM | 6020 nM | 7740 nM
COc1cnc2c(c1)C(=O)c1c-2n(CCCn2ccnc2)c(=O)c2cc(OC)c(OC)cc12 [A8] | 110 nM | 42 nM | 40 nM | 56 nM | 600 nM | 61 nM | 30 nM | 240 nM | 53 nM
CCNCCCn1c2c(c3cc(OC)c(OC)cc3c1=O)C(=O)c1cc(OC)cnc1-2 [A9] | 420 nM | 320 nM | 700 nM | 1440 nM | 3600 nM | 2160 nM | 160 nM | 1540 nM | 800 nM
COc1cnc2c(c1)C(=O)c1c-2n(CCCNCC2CC2)c(=O)c2cc(OC)c(OC)cc12 [A10] | 400 nM | 670 nM | 840 nM | 440 nM | 1820 nM | 960 nM | 160 nM | 860 nM | 1000 nM
